Measured values as given in paper PMC9875641, “Ophthalmic Solution of Smart Supramolecular Peptides to Capture Semaphorin 4D against Diabetic Retinopathy” (Advanced Science, 2022).

How the values were obtained:
[1] = test system: mouse brain microvascular endothelial cells (MBMEC); test: CCK-8 cytotoxicity; format: cell-based; conditions: CCK-8, 24 h incubation, concentrations up to 80 × 10^−6 M
Protocol: In addition, KLVFF sequence, a sheet structure with strong hydrogen‐bonding was introduced into SSPs, we could distinctly observe the secondary structure of SSPs by circular dichroism (CD) spectroscopy. […] The percentage of β‐sheet after incubation with sSema4D in SSP‐1 and SSP‐2 were 85.6% and 42.3%, respectively, indicative of a highly organized packing of NFs in SSP‐1. […] The high percentage of β‐sheet structure in NFs stabilized the formation of nanostructure networks, due to its strong hydrogen‐bonding KLVFF sequence. Moreover, we carried out the cytotoxicity of SSP‐1 and SSP‐2 by using a standard CCK‐8 (Figure 3D). […] Finally, we investigated the recognition of sSema4D and SSP‐1 and SSP‐2 by confocal laser scanning microscope (CLSM). […]
pericytes were cultured in Pericyte Medium (ScienCell, USA). bEnd.3 cells were purchased from ATCC and grown in DMEM with 10% fetal bovine serum.
Preparation method of nanoparticles. The nanomaterials FG-12 and FH-12 were added to a 1:1 mixture of propylene glycol and ethanol solution to form a 2 mM mother liquor. The mother solution was diluted in normal saline at 1:100 dilution to form a 20 μM nanoparticle solution. […]
solution was added. After 2 h incubation with CCK8 solution at 37℃ in a 5% CO2 atmosphere, the […] was evaluated by a fluorescence microplate reader (PerkinElmer, Waltham, MA, USA). real-time PCR. […]

OIR model = test: Oxygen-induced retinopathy (OIR) model, pathological retinal neovascularization; format: in vivo, mouse; conditions: for reduction of pathological retinal neovascularization by eye drops plus anti-VEGF injection compared with anti-VEGF injection alone: isolectin B4, anti-VEGF antibody 2 µg intravitreal at P12, eye drops twice a day until P17, on average
Protocol: follows: 5’-[…]-3’, 5’- […]
OIR. OIR model was performed as previously described. The pups and their mothers […]
were exposed to 75% oxygen at 7-12 days after birth, and then exposed to indoor air […]
for another 5 days. At P17, the mice were anesthetized and sacrificed, and the retinas […]
Isolectin B4. Isolectin B4 staining for retinal blood vessel visualization is as […]
described above. After fixing the eyeball with 4% paraformaldehyde (overnight at 4 […]
degrees), the intact retina was peeled off using microscissors and micro tweezers.
After rupture of the membrane with 2% Triton X-100, the retina was placed in the […]
configured isolectin B4 staining (1:100) overnight at 4 degrees. Acquire multiple […]
overlapping (10-20% overlap) images using a fluorescence microscope and merge […]
them together in Adobe Photoshop to visualize the entire retina. Use ImageJ software to quantify the area of pathological neovascularization relative to the total retinal area. […]
(§1) Statistical analysis. Statistical analysis was conducted using Graphpad Prism 8.0 software. All data were expressed by mean ± SD. Unpaired two-tailed Student’s t-test (two groups) or one-way ANOVA (more than 2 groups) was used to analyze the statistical significances of the data. Person’s correlation analysis was conducted to […]

endothelial cells = test: Wound-healing and transwell migration of endothelial cells induced by recombinant Sema4D; format: cell-based, mouse; conditions: wound-healing and transwell assays, n = 3; effect equal to anti-Sema4D antibody
pericytes = test: Transwell migration of pericytes induced by recombinant Sema4D; format: cell-based, mouse; conditions: transwell assay, n = 3
[2] = Intraocular distribution and retention after topical instillation; format: in vivo, mouse; conditions: for presence (retention) in the mice vitreous humor: FITC-labeled peptide eye drops, fluorescence of vitreous humor at different time points, n = 3 (each sample from 5 mice); for intraocular distribution of fluorescence after topical instillation: FITC-labeled peptide, 10 µL eye drop once, 12 h after instillation, fluorescence and LC/MS
Protocol: To study the intraocular distribution of the FITC‐labeled SSP‐1 and SSP‐2 after topical instillation, fluorescence observation and liquid chromatography‐mass spectrometry (LC/MS) were performed on the entire eyes of mice, the frozen sections of the eyes, and their vitreous humor (Figure 7A–D). […] The topical instillation of SSP eye drop was instilled once with 10 µL before fluorescence observation. However, intraocular injection was administrated once with the maximum volume of 2 µL to avoid overdose induced high intraocular pressure due to the limited volume of the vitreous cavity. […] Next, we studied the intraocular pharmacokinetics of SSP‐1 and SSP‐2 after topical instillation. […] Moreover, we established an in vitro blood‐retina barrier (BRB) model to investigate the transferring efficiency of SSP‐1 and SSP‐2 across the posterior ocular absorption barriers. […]
Intraocular Distribution of FG/FH. Male mice (20-25 g) derived from Charles River (Beijing, China) were used in this experiment. 10 μL FITC-labeled FH or FG (dissolved in artificial tear fluid, 20 nM) were gently dripped in the conjunctival sac.
The upper and lower eyelids were massaged to make homodisperse on the eye surface. After 12h FITC-labeled FH or FG were instilled, the mice were sacrificed and the eyeballs were wash in the PBS solution. luminescence signal was detected via the In-Vivo FX PRO system (Bruker).
as §1

[3] = eye drops 5 µL per eye twice daily P12 to P17, n = 8, equal to intraocular anti-Sema4D antibody
[4] = eye drops 5 µL per eye twice daily P12 to P17, vs littermate controls, n = 7
[5] = intravitreal injection at P12, retinas at P17, n = 8, effect equal to Sema4D antibody
[6] = intravitreal injection at P12, retinas at P17, vs littermate controls, n = 6

For “C16‐FFVLK‐KNKAAKG [SSP-2, smart supramolecular peptide, C16‐FFVLK‐KNKAAKG, self-assembling, captures sSema4D]”, which “viability of MBMEC” value [1] is on record?
Its value is roughly 90%.

And the “pathological retinal vascular neovascularization (isolectin B4 staining)” value (OIR model; [3])?
Its value is “decreased”.

What about the “numbers of preretinal neovascular cells” value (OIR model; [4]) of the same substance?
The value was “significantly decreased”.

What about the “pathological retinal vascular neovascularization (isolectin B4 staining)” value (OIR model; [5]) of the same substance?
The value was “decreased”.

What about the “numbers of preretinal neovascular cells” value (OIR model; [6]) of the same substance?
Its value is “significantly reduced”.

And the “reduction of pathological retinal neovascularization by eye drops plus anti-VEGF injection compared with anti-VEGF injection alone” value (OIR model)?
The value was 22.68%.

And the “recombinant Sema4D protein-induced endothelial cell migration” value (endothelial cells)?
Its value is “inhibited”.

What about the “recombinant Sema4D protein-induced pericyte migration” value (pericytes) of the same substance?
The value was “reduced”.

What about the “presence (retention) in the mice vitreous humor” value [2] of the same substance?
The value was “up to 5 days”.

What about the “intraocular distribution of fluorescence after topical instillation” value [2] of the same substance?
Its value is “mainly in the retina and vitreous humor”.

Which results are given for “C16‐FFVLK‐KQKRPRH [SSP-1, smart supramolecular peptide, C16‐FFVLK‐KQKRPRH, self-assembling, captures sSema4D]”?
viability of MBMEC [1]: ~90%; pathological retinal vascular neovascularization (isolectin B4 staining) (OIR model; [3]): decreased; numbers of preretinal neovascular cells (OIR model; [4]): significantly decreased; pathological retinal vascular neovascularization (isolectin B4 staining) (OIR model; [5]): decreased; numbers of preretinal neovascular cells (OIR model; [6]): significantly reduced; reduction of pathological retinal neovascularization by eye drops plus anti-VEGF injection compared with anti-VEGF injection alone (OIR model): 25.72%; recombinant Sema4D protein-induced endothelial cell migration (endothelial cells): inhibited; recombinant Sema4D protein-induced pericyte migration (pericytes): reduced; presence (retention) in the mice vitreous humor [2]: up to 5 days; intraocular distribution of fluorescence after topical instillation [2]: mainly in the retina and vitreous humor
